Entries after “also recorded” stand apart in the source; their conditions may differ.
Tests used:
tau peptide R3 = target: T1, tau peptide R3 (Homo sapiens, UniProt P10636); experiment: Endogenous (tyrosine) fluorescence quenching of tau peptide R3; assay type: binding; conditions: for n (binding sites): Hill equation
T1 construct: R3 (^306VQIVYK PVDLSK VTSKCG SLGNIH HKPGGG Q^336) and rabbit anti-tau antibody were purchased from MuJin; purchased MuJin
Procedure: The affinity of the synthetic compounds toward tau peptide was evaluated by endogenous fluorescence quenching experiment. The N-galloyl-substituted azacrown (ligand) can quench the endogenous fluorescence of tyrosine residues (306–310, VQIVY) on R3 peptide chain (receptor), if there exists a definite interaction between the ligand and the receptor. With titration of 4GA or 2GA (ligands) into the solution of tau peptide R3 (receptors), the endogenous fluorescence (at 310 nm) of tyrosine residues on R3 peptide chain was gradually quenched (data provided in ESI, Fig. S11). The data were then fitted by the Stern−Volmer formula to give the quenching constants (Kb) (Fig. S12). The quenching constants (Kb) and binding sites (n) of 4GA or 2GA to R3 peptide in the temperatures 25 °C and 37 °C are presented in Table 1.
The structural changes of R3 protein upon binding to 4GA/2GA/GA was documented by fluorescence spectroscopy. Briefly, various concentrations of 4GA/2GA/GA (0, 5, 10, 15, 20, 30, 40, 60, or 80 μM) were added to the 15 μM R3 protein in 50 mM Tris–HCl buffer (pH 7.4) in a 10-mm quartz cuvette. The measurement was carried out by Hitachi F-7000 equipped with a circulating water bath at 25 and 37 °C. The fluorescence spectra of R3 protein were documented from 290 nm to 380 nm with 275 nm excitation. The widths of excitation and emission slit were set at 5 and 10 nm, respectively.
The Stern–Volmer (Formula 4.1) was used to determine the quenching mechanism, either static or dynamic quenching:(4.1) F0/F=1+KSV[Q] where F0 and F are the fluorescence intensity without and with quencher, [Q] means the concentration of quencher, and Ksv is the Stern–Volmer constant.
Furthermore, the binding constant (Kb) and number of the binding sites (n) of quencher on R3 protein could be calculated by Hill (Equation 4.2):(4.2) log[F0−F/F]=logKb+nlog[Q]
The tyrosine fluorescence quenching experiment was carried out to determine the binding ability between inhibitors and R3 protein. […] Furthermore, this experiment is reasonable given the relatively weak fluorescence intensity of 4GA, 2GA, and GA (Figure S10). With titration of inhibitors into the solution of R3 protein, the fluorescence of tyrosine residues was gradually quenched in two temperatures of 25°C and 37°C, implying that 4GA or 2GA can interact with R3.
Fluorescence quenching usually proceeds through either dynamic quenching or static quenching. Dynamic quenching refers to the contact process between excited fluorophore and quencher, while static quenching refers to the formation of fluorophore-quencher complexes. A series of data processing about the fluorescence change of tyrosine residues at 25°C and 37°C was utilized to figure out the binding constant. Compared to the standard Stern-Volmer curves, a minor positive deviation from linearity was observed by plotting F0/F versus concentration, indicating a mixture of dynamic and static patterns (Figure S11). Furthermore, the Hill equation was used to calculate the quenching constant and binding sites of inhibitors on R3 protein (Figure S12).

[1] = test system: ROS generated by R3 + Cu^2+; experiment: ROS in solution, DCFH fluorescent probe; assay type: biochemical
Excerpt: In this experiment, the fluorescent probe, 2′,7′-dichlorodihydrofluorescein (DCFH), was used to detect the formation of ROS in solution.
Figure 7 The scavenge ability of 4GA and 2GA on ROS.A, time-dependent experiment for monitoring ROS level in solution at different conditions, using the fluorescent probe 2′,7′-dichlorodihydrofluorescein (DCFH). B, ROS levels in SK-N-SH cells treated with different conditions detected by the fluorescent probe of DCFH in flow cytometry. The data were reported as the mean ± SD, n = 3. Statistical analysis was performed using a one-way ANOVA test, ∗p < 0.05, ∗∗p < 0.01, and ∗∗∗p < 0.001 (n = 3). C, confocal laser scanning microscopy (CLSM) analysis of the intracellular ROS level stained with DCFH. Scale bar represents 12.5 μm. 2GA, (4,10-dimethyl-1,4,7,10-tetraazacyclododecane-1,7-diyl)bis((3,4,5-trihydroxyphenyl)methanone); 4GA, (1,4,7,10-tetraazacyclododecane-1,4,7,10-tetrayl)tetrakis((3,4,5-trihydroxyphenyl)methanone); ROS, reactive oxygen species.

T1 sequence (P10636 623-653 limits assumed): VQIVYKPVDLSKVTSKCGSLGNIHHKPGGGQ

| SMILES | n (binding sites) (tau peptide R3; 25 °C) | n (binding sites) (tau peptide R3; 37 °C) | DCFH fluorescence (ROS) in R3 + Cu2+ solution [1] | binding ability / interaction with R3 (tau peptide R3; 25 °C and 37 °C) |
| --- | --- | --- | --- | --- |
| CN1CCN(C(=O)c2cc(O)c(O)c(O)c2)CCN(C)CCN(C(=O)c2cc(O)c(O)c(O)c2)CC1 [2GA, (4,10-dimethyl-1,4,7,10-tetraazacyclododecane-1,7-diyl)bis((3,4,5-trihydroxyphenyl)methanone)] | 1.14 ± 0.05 | 1.32 ± 0.04 | returning to the level observed in the R3 solution without Cu^2+ |  |
| O=C(c1cc(O)c(O)c(O)c1)N1CCN(C(=O)c2cc(O)c(O)c(O)c2)CCN(C(=O)c2cc(O)c(O)c(O)c2)CCN(C(=O)c2cc(O)c(O)c(O)c2)CC1 [4GA, (1,4,7,10-tetraazacyclododecane-1,4,7,10-tetrayl)tetrakis((3,4,5-trihydroxyphenyl)methanone)] | 1.33 ± 0.05 | 1.54 ± 0.07 | returning to the level observed in the R3 solution without Cu^2+ |  |
| O=C(O)c1cc(O)c(O)c(O)c1 [GA, gallic acid, reference compound] |  |  | could also quench the DCFH fluorescence | no significant interaction between GA and R3; also recorded: negligible binding ability |

Reference: PMC12455130, “Multifunctional molecular agent for tau-targeted combinational therapy of Alzheimer’s disease” (The Journal of Biological Chemistry, 2025)
